This is an account of results in US20110293672A1, “PANCREATIC TUMOUR TREATMENT” (BIOCOMPATIBLES UK LIMITED, priority 2008, published 2011).

Usually IC50 stands for the midpoint of a concentration-inhibition curve. In general, viability refers to a read-out of living cells in per cent, often relative to untreated cells. A higher viability goes with less harm to the cells.

The subject of one assay is advanced pancreas cancer. The conditions noted are these: single agent, patients with advanced pancreas cancer; cited from earlier work.
For assay [1], the system named is PSN1 (Human Pancreatic Carcinoma) Cell Line. Put plainly: MTS cytotoxicity of irinotecan and topotecan solutions on PSN1 cells. Format: cell-based. Conditions: for IC50: read-out: Estimated IC50 conc. How it is done: 20,000 PSN1 cells were seeded in 96 well plates and left to adhere to the well surface overnight. The drug solutions underwent serial dilutions from 1000 μg/ml to 1×10^−8 μg/ml in cell culture media. […] After 24, 48 and 72 hrs, the cells were washed (×3) with PBS and 100 μl media was added. The MTS assay was conducted by adding 20 μl MTS solution to each well and incubating (37° C., 5% CO2) for 2 hrs. The absorbance of each well at 490 nm was determined using a Biotek plate reader.

≈ marks a conversion by molar mass, not a printed value. Read-outs that look alike come from different tables or passages of the source.

With `O=c1[nH]cc(F)c(=O)[nH]1` [5-fluorouracil], the Median survival in the assay with advanced pancreas cancer is 4.4 months.
`CCc1c2c(nc3ccc(OC(=O)N4CCC(N5CCCCC5)CC4)cc13)-c1cc3c(c(=O)n1C2)COC(=O)[C@]3(O)CC` [Irinotecan, irinotecan]: the figures for the “Concentration at which a reduction in cell viability began” value in assay [1] (24 hrs exposure) and in assay [1] (48 hours) were 100 µg/mL and 10 µg/mL, respectively. The “Concentration at which an effect on cell viability began” value in assay [1] (72 hours) was “around 50 μg/ml”. Also, the “Effect on cell viability at lower concentration” value in assay [1] (<1 μg/ml, even after 72 hours) is reported as “no detrimental effect in cell viability”. Moreover, the 50% inhibitory concentration (IC50) in assay [1] (Homo sapiens, 24 hrs exposure) is 100 µg/mL (≈ 170 µM); in assay [1] (Homo sapiens, 48 hrs exposure) it was 35 µg/mL (≈ 59.7 µM); in assay [1] (Homo sapiens, 72 hrs exposure), 30 µg/mL (≈ 51.1 µM).
Consider `CC[C@@]1(O)C(=O)OCc2c1cc1n(c2=O)Cc2cc3c(CN(C)C)c(O)ccc3nc2-1` [Topotecan, topotecan], for which the “Relative potency in reducing PSN1 cell viability” value in assay [1] is “more potent than irinotecan”. The “Concentration at which a reduction in cell viability began” value in assay [1] (24 hrs exposure) was 1 µg/mL; in assay [1] (48 hours), 0.1 µg/mL. For the same compound, the “Concentration at which an effect on cell viability began” value in assay [1] (72 hours) turned out to be 1e-07 µg/mL. The “Concentration needed for a reduction in cell viability below 80%” value in assay [1] (72 hours) came to 0.01 µg/mL. Further, the half-inhibitory concentration (IC50) in assay [1] (Homo sapiens, 24 hrs exposure) was 600 µg/mL (≈ 1420 µM); in assay [1] (Homo sapiens, 48 hrs exposure), 0.6 µg/mL (≈ 1.42 µM); in assay [1] (Homo sapiens, 72 hrs exposure), 0.1 µg/mL (≈ 0.237 µM). In assay [1] (Homo sapiens, 48 hours, 0.1 μg/ml), this compound had a viability at 0.1 µg/mL of approximately 80%.
With `Nc1ccn([C@@H]2O[C@H](CO)[C@@H](O)C2(F)F)c(=O)n1` [gemcitabine], in the assay with advanced pancreas cancer, the Median survival is reported as 5.7 months.
